ChEMBL document CHEMBL1201862, “PubChem BioAssay data set” (2004)
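Tested at 5 concentrations; 48 h exposure; 96-well plates; endpoints linearly interpolated, else capped at highest concentration. GI50 is the concentration that inhibits growth by half.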 Activity calls are given as the source filed them. Rule as the data show it: active = GI50 up to about 1.1 µM and inactive = higher.

Columns and labels:
Experiment in all cases: NCI tumour cell line growth inhibition, 48 h
[1] = test system: 786-0
[2] = test system: A498
[3] = test system: A549
[4] = test system: ACHN
[5] = test system: BT-549
[6] = test system: CAKI-1
[7] = test system: CCRF-CEM
[8] = test system: COLO 205
[9] = test system: EKVX
[10] = test system: HCC 2998
[11] = test system: HCT-116
[12] = test system: HCT-15
[13] = test system: HOP-62
[14] = test system: HOP-92
[15] = test system: HT-29
[16] = test system: Hs-578T
[17] = test system: IGROV-1
[18] = test system: K562
[19] = test system: KM12
[20] = test system: LOX IMVI
[21] = test system: M14
[22] = test system: MCF7
[23] = test system: MDA-MB-231
[24] = test system: MDA-MB-435
[25] = test system: MOLT-4
[26] = test system: Malme-3M
[27] = test system: NCI-H226
[28] = test system: NCI-H460
[29] = test system: NCI-H522
[30] = test system: NCI/ADR-RES
[31] = test system: OVCAR-4
[32] = test system: OVCAR-5
[33] = test system: OVCAR-8
[34] = test system: PC-3
[35] = test system: RPMI-8226
[36] = test system: RXF 393
[37] = test system: SF-268
[38] = test system: SF-295
[39] = test system: SF-539
[40] = test system: SK-MEL-28
[41] = test system: SK-MEL-2
[42] = test system: SK-MEL-5
[43] = test system: SK-OV-3
[44] = test system: SN12C
[45] = test system: SNB-19
[46] = test system: SNB-75
[47] = test system: SW-620
[48] = test system: TK-10
[49] = test system: U-251
[50] = test system: UACC-257
[51] = test system: UACC-62
[52] = test system: HL-60
[53] = test system: MDA-N
[54] = test system: DU-145
[55] = test system: NCI-H23
[56] = test system: OVCAR-3
[57] = test system: SR
[58] = test system: UO-31

Cc1ccc(-c2c(C#N)c(-c3ccc(C)cc3)n(NS(=O)(=O)c3ccccc3)c(=O)c2C#N)cc1
GI50 [1]: 54.1 µM (inactive) | GI50 [2]: 51.2 µM (inactive) | GI50 [3]: 41.2 µM (inactive) | GI50 [4]: 37.5 µM (inactive) | GI50 [5]: 25.4 µM (inactive) | GI50 [6]: 83.8 µM (inactive) | GI50 [7]: 24.4 µM (inactive) | GI50 [8]: 89.5 µM (inactive) | GI50 [9]: 56.6 µM (inactive) | GI50 [10]: 25.2 µM (inactive) | GI50 [11]: 31.1 µM (inactive) | GI50 [12]: 39.4 µM | GI50 [13]: 49.2 µM (inactive) | GI50 [14]: 28.6 µM (inactive) | GI50 [15]: 41.7 µM (inactive) | GI50 [16]: > 100 µM (inactive) | GI50 [17]: 44.5 µM (inactive) | GI50 [18]: 49.2 µM (inactive) | GI50 [19]: 56.5 µM (inactive) | GI50 [20]: 35 µM (inactive) | GI50 [21]: 40.6 µM (inactive) | GI50 [22]: 24 µM (inactive) | GI50 [23]: > 100 µM (inactive) | GI50 [24]: 61.1 µM (inactive) | GI50 [25]: 25.2 µM (inactive) | GI50 [26]: 86.5 µM (inactive) | GI50 [27]: > 100 µM (inactive) | GI50 [28]: 40.9 µM (inactive) | GI50 [29]: 50.1 µM (inactive) | GI50 [30]: 50.5 µM (inactive) | GI50 [31]: 40.6 µM (inactive) | GI50 [32]: > 100 µM (inactive) | GI50 [33]: 69.2 µM (inactive) | GI50 [34]: 28.9 µM (inactive) | GI50 [35]: 14.7 µM (inactive) | GI50 [36]: 35.3 µM (inactive) | GI50 [37]: > 100 µM (inactive) | GI50 [38]: 32.5 µM (inactive) | GI50 [39]: 21.2 µM (inactive) | GI50 [40]: 49.2 µM (inactive) | GI50 [41]: 57.4 µM (inactive) | GI50 [42]: 16 µM (inactive) | GI50 [43]: 53.8 µM (inactive) | GI50 [44]: 62.2 µM (inactive) | GI50 [45]: 42.1 µM (inactive) | GI50 [46]: > 100 µM (inactive) | GI50 [47]: 42.4 µM (inactive) | GI50 [48]: 76.2 µM (inactive) | GI50 [49]: 49.9 µM (inactive) | GI50 [50]: 86.1 µM (inactive) | GI50 [51]: 34.1 µM (inactive)

O=C(O)c1ccccc1/N=N\c1c(O)c(S(=O)(=O)O)cc2cc(S(=O)(=O)O)ccc12
GI50 [2]: > 100 µM (inactive) | GI50 [3]: 1.82 µM (inactive) | GI50 [5]: 0.201 µM (active) | GI50 [8]: 1.2 µM (inactive) | GI50 [10]: > 100 µM (inactive) | GI50 [11]: 1.63 µM (inactive) | GI50 [52]: < 0.01 µM (active) | GI50 [16]: 1.97 µM (inactive) | GI50 [20]: > 100 µM (inactive) | GI50 [21]: 3.83 µM (inactive) | GI50 [22]: > 100 µM (inactive) | GI50 [24]: 2.65 µM (inactive) | GI50 [53]: 2.41 µM (inactive) | GI50 [26]: 0.0711 µM (active) | GI50 [27]: 0.0239 µM (active) | GI50 [28]: > 100 µM (inactive) | GI50 [29]: 0.0231 µM (active) | GI50 [30]: 1.06 µM (active) | GI50 [31]: 0.0962 µM (active) | GI50 [35]: 1.35 µM (inactive) | GI50 [37]: 1.8 µM (inactive) | GI50 [42]: 4.72 µM (inactive) | GI50 [45]: 2.81 µM (inactive) | GI50 [47]: 1.85 µM (inactive) | GI50 [49]: 1.48 µM (inactive)

NNC(=O)c1nnn(CCc2ccccc2)c1C(=O)NN
GI50 [1]: > 100 µM (inactive) | GI50 [3]: > 100 µM (inactive) | GI50 [4]: > 100 µM (inactive) | GI50 [5]: > 100 µM (inactive) | GI50 [6]: > 100 µM (inactive) | GI50 [7]: > 100 µM (inactive) | GI50 [8]: > 100 µM (inactive) | GI50 [54]: > 100 µM (inactive) | GI50 [9]: > 100 µM (inactive) | GI50 [10]: > 100 µM (inactive) | GI50 [11]: > 100 µM (inactive) | GI50 [12]: > 100 µM | GI50 [52]: > 100 µM (inactive) | GI50 [13]: > 100 µM (inactive) | GI50 [15]: > 100 µM (inactive) | GI50 [18]: > 100 µM (inactive) | GI50 [19]: > 100 µM (inactive) | GI50 [20]: > 100 µM (inactive) | GI50 [21]: > 100 µM (inactive) | GI50 [22]: > 100 µM (inactive) | GI50 [23]: > 100 µM (inactive) | GI50 [24]: > 100 µM (inactive) | GI50 [53]: > 100 µM (inactive) | GI50 [25]: > 100 µM (inactive) | GI50 [26]: > 100 µM (inactive) | GI50 [55]: > 100 µM (inactive) | GI50 [28]: > 100 µM (inactive) | GI50 [30]: > 100 µM (inactive) | GI50 [56]: > 100 µM (inactive) | GI50 [31]: > 100 µM (inactive) | GI50 [32]: > 100 µM (inactive) | GI50 [33]: > 100 µM (inactive) | GI50 [34]: > 100 µM (inactive) | GI50 [35]: > 100 µM (inactive) | GI50 [38]: > 100 µM (inactive) | GI50 [40]: > 100 µM (inactive) | GI50 [41]: > 100 µM (inactive) | GI50 [42]: > 100 µM (inactive) | GI50 [44]: > 100 µM (inactive) | GI50 [45]: > 100 µM (inactive) | GI50 [57]: > 100 µM (inactive) | GI50 [48]: 68.2 µM (inactive) | GI50 [49]: > 100 µM (inactive) | GI50 [50]: > 100 µM (inactive) | GI50 [58]: > 100 µM (inactive)
